{"source": "patent US7670997B2", "about": "“Ophthalmic compositions comprising a branched, glycerol monoalkyl compound and a fatty acid monoester” (Bausch & Lomb Incorporated, priority 2006, dated 2010)", "key": {"[1]": {"system": "Gram-positive bacteria associated with perspiration odor", "conditions": "Sensiva product literature, Schulke & Mayr; cited from earlier work"}, "[2]": {"conditions": "for Foam Height Time = 0 min: after 10 seconds of vigorous shaking; for Foam Height Time = 30 min: after 30 minutes of standing", "method": "In such a test, 50 mL of the solution being tested is placed in a 100 mL graduated cylinder (2.6 cm in diameter). The foam height is measured after 10 seconds of vigorous shaking of the cylinder containing the test solution. Foam height after 30 minutes of standing is also measured to evaluate foam draining propensity of the test solutions."}, "[3]": {"conditions": "octoxyglycerin 0.05 ppm in Table 1 formulation"}, "[4]": {"conditions": "octoxyglycerin 0.10 ppm in Table 1 formulation"}, "[5]": {"conditions": "octoxyglycerin 0.25 ppm in Table 1 formulation"}, "[6]": {"conditions": "octoxyglycerin 0.50 ppm in Table 1 formulation"}, "[7]": {"conditions": "octoxyglycerin 0.75 ppm in Table 1 formulation"}, "[8]": {"conditions": "octoxyglycerin 1.00 ppm in Table 1 formulation"}, "[9]": {"conditions": "octoxyglycerin 2.00 ppm in Table 1 formulation"}}, "note": "Like-named read-outs stand apart in the source and are kept apart here."}
{"smiles": "CCCCC(CC)COCC(O)CO", "note": "(stereo not shown) [octoxyglycerin, 3-[(2-ethylhexyl)oxy]-1,2-propanediol]", "values": [{"measurement": "antimicrobial activity against Gram-positive bacteria", "setting": "[1]", "value": "exhibit antimicrobial activity"}, {"measurement": "control of foaming", "setting": "[2]; amounts over 0.05 ppm, multi-purpose lens care products with over 3.0 wt % foaming surfactants (Pluronic F127, Tetronic 1107)", "value": "effective control of foaming"}, {"measurement": "Foam Height Time = 0 min", "setting": "[2]; [3]", "value": "3.8 ± 0.2", "unit": "cm"}, {"measurement": "Foam Height Time = 30 min", "setting": "[2]; [3]", "value": "3.0 ± 0.3", "unit": "cm"}, {"measurement": "Foam Height Time = 0 min", "setting": "[2]; [4]", "value": "2.6 ± 0.4", "unit": "cm"}, {"measurement": "Foam Height Time = 30 min", "setting": "[2]; [4]", "value": "2.0 ± 0.2", "unit": "cm"}, {"measurement": "Foam Height Time = 0 min", "setting": "[2]; [5]", "value": "1.3 ± 0.2", "unit": "cm"}, {"measurement": "Foam Height Time = 30 min", "setting": "[2]; [5]", "value": "0.8 ± 0.2", "unit": "cm"}, {"measurement": "Foam Height Time = 0 min", "setting": "[2]; [6]", "value": "0.7 ± 0.2", "unit": "cm"}, {"measurement": "Foam Height Time = 30 min", "setting": "[2]; [6]", "value": "0.4 ± 0.1", "unit": "cm"}, {"measurement": "Foam Height Time = 0 min", "setting": "[2]; [7]", "value": "0.3 ± 0.1", "unit": "cm"}, {"measurement": "Foam Height Time = 30 min", "setting": "[2]; [7]", "value": "0.2 ± 0.1", "unit": "cm"}, {"measurement": "Foam Height Time = 0 min", "setting": "[2]; [8]", "value": "0.1 ± 0.0", "unit": "cm"}, {"measurement": "Foam Height Time = 30 min", "setting": "[2]; [8]", "value": "0.0 ± 0.0", "unit": "cm"}, {"measurement": "Foam Height Time = 0 min", "setting": "[2]; [9]", "value": "0.1 ± 0.0", "unit": "cm"}, {"measurement": "Foam Height Time = 30 min", "setting": "[2]; [9]", "value": "0.0 ± 0.0", "unit": "cm"}]}
